Laboratory results: ChEMBL document CHEMBL3098093, “Synthesis, modification and docking studies of 5-sulfonyl isatin derivatives as SARS-CoV 3C-like protease inhibitors” (Bioorg Med Chem, 2014)
pIC50: −log10 of the molar value.

Target: Replicase polyprotein 1ab (Severe acute respiratory syndrome-related coronavirus, UniProt P0C6X7)
Assay: Inhibition of GST-tagged SARS coronavirus 3C-like protease by FRET assay

Structure (SMILES) | pIC50
CC1CCN(S(=O)(=O)c2ccc3c(c2)C(=O)C(=O)N3C)CC1 | 5.98
CN1C(=O)C(=O)c2cc(S(=O)(=O)N3CCOCC3)ccc21 | 5.00
O=C1Nc2ccc(S(=O)(=O)N3CCN(Cc4cccc(Cl)c4)CC3)cc2C1=O | 4.50
O=C1C(=O)N(Cc2ccc3ccccc3c2)c2ccc(S(=O)(=O)N3CCOCC3)cc21 | 4.40
O=C1Nc2ccc(S(=O)(=O)N3CCN(c4ccc(F)cc4)CC3)cc2C1=O | < 4.00
CC1CC(C)CN(S(=O)(=O)c2ccc3c(c2)C(=O)C(=O)N3Cc2ccccc2)C1 (stereo not drawn) | 5.33
CC1CC(C)CN(S(=O)(=O)c2ccc3c(c2)C(=O)C(=O)N3C)C1 (stereo not drawn) | 5.55
CN1CCN(S(=O)(=O)c2ccc3c(c2)C(=O)C(=O)N3C)CC1 | 4.93
O=C1Nc2ccc(S(=O)(=O)N3CCN(c4ccccn4)CC3)cc2C1=O | 4.29
O=C1C(=O)N(Cc2ccccc2)c2ccc(S(=O)(=O)N3CCCCC3)cc21 | 4.85
O=C1Nc2ccc(S(=O)(=O)N3CCCCC3)cc2C1=O | 5.35
O=C1Nc2ccc(S(=O)(=O)N3CCN(CCc4ccccc4)CC3)cc2C1=O | 4.46
CC1CCN(S(=O)(=O)c2ccc3c(c2)C(=O)C(=O)N3Cc2ccc3ccccc3c2)CC1 | 4.75
CN1C(=O)C(=O)c2cc(S(=O)(=O)N3CCN(c4ccccn4)CC3)ccc21 | 5.26
CC1CCN(S(=O)(=O)c2ccc3c(c2)C(=O)C(=O)N3Cc2ccccc2)CC1 | 5.77
CN1CCN(S(=O)(=O)c2ccc3c(c2)C(=O)C(=O)N3)CC1 | 4.11
CN1CCN(S(=O)(=O)c2ccc3c(c2)C(=O)C(=O)N3Cc2ccc3ccccc3c2)CC1 | 4.08
O=C1Nc2ccc(S(=O)(=O)N3CCOCC3)cc2C1=O | 4.90
O=C1Nc2ccc(S(=O)(=O)N3CCN(c4cccc(C(F)(F)F)c4)CC3)cc2C1=O | < 4.00
CC1CC(C)CN(S(=O)(=O)c2ccc3c(c2)C(=O)C(=O)N3)C1 (stereo not drawn) | 5.37
CN1CCN(S(=O)(=O)c2ccc3c(c2)C(=O)C(=O)N3Cc2ccccc2)CC1 | 4.17
O=C1C(=O)N(Cc2ccccc2)c2ccc(S(=O)(=O)N3CCOCC3)cc21 | 4.86
O=C1Nc2ccc(S(=O)(=O)N3CCN(C(=O)c4ccco4)CC3)cc2C1=O | 5.00
CC1CCCCN1S(=O)(=O)c1ccc2c(c1)C(=O)C(=O)N2 (stereo not drawn) | 5.65
CN1C(=O)C(=O)c2cc(S(=O)(=O)N3CCN(CCc4ccccc4)CC3)ccc21 | 4.86
COc1cc(CN2CCN(S(=O)(=O)c3ccc4c(c3)C(=O)C(=O)N4)CC2)cc(OC)c1OC | 4.49
CC1CCN(S(=O)(=O)c2ccc3c(c2)C(=O)C(=O)N3)CC1 | 5.93

Target: Replicase polyprotein 1ab (Severe acute respiratory syndrome-related coronavirus) (UniProt P0C6X7)
Assay: Inhibition of GST-tagged SARS coronavirus 3C-like protease at 1 mM by FRET assay

Structure (SMILES) | inhibition
O=C1Nc2ccc(Cl)cc2C1=O | 84.2%
O=C1Nc2cccc(Br)c2C1=O | 68.4%
CN1CCN(S(=O)(=O)c2ccc3c(c2)C(=O)C(=O)N3)CC1 | 98.6%
CC(=O)c1ccc2c(c1)C(=O)C(=O)N2 | 95.4%
COc1ccc2c(c1)C(=O)C(=O)N2 | 95.3%
O=C1Nc2ccc([N+](=O)[O-])cc2C1=O | 94%
O=C1Nc2ccc(I)cc2C1=O | 86.7%
O=C1Nc2ccc(Br)cc2C1=O | 90.5%
O=C1Nc2ccc(C(=O)O)cc2C1=O | 44.8%
O=C1Nc2ccc(F)cc2C1=O | 82.5%
O=C1Nc2cc3c(cc2C1=O)CCC3 | 79.4%
